Results published in PubChem BioAssay (NCI).
“And” between values parts separate entries of the source, which are not always exact repeats. Equal entries are not always repeated.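 1) Cells in 96-well plates. 2) Compound, 48 h, 5 concentrations. 3) Linear interpolation between surrounding doses. 4) Unreached endpoint = highest concentration. GI50 = concentration required for 50% inhibition of growth. TGI: concentration producing complete growth inhibition.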

Assays:
Assay in all cases: inhibition of tumour cell growth, NCI panel, 48 h
HCT-116 colon = tested on: HCT-116 colon
BT-549 breast = tested on: BT-549 breast
SK-OV-3 ovarian = tested on: SK-OV-3 ovarian
HT29 colon = tested on: HT29 colon
786-0 renal = tested on: 786-0 renal
HOP-62 NSCLC = tested on: HOP-62 NSCLC
DU-145 prostate = tested on: DU-145 prostate
A549 NSCLC = tested on: A549 NSCLC
HCC-2998 colon = tested on: HCC-2998 colon
HOP-92 NSCLC = tested on: HOP-92 NSCLC

| Structure (SMILES) | GI50 (HCT-116 colon) | TGI (HCT-116 colon) | GI50 (BT-549 breast) | TGI (BT-549 breast) | GI50 (SK-OV-3 ovarian) | TGI (SK-OV-3 ovarian) | GI50 (HT29 colon) | TGI (HT29 colon) | GI50 (786-0 renal) | TGI (786-0 renal) | GI50 (HOP-62 NSCLC) | TGI (HOP-62 NSCLC) | GI50 (DU-145 prostate) | TGI (DU-145 prostate) | GI50 (A549 NSCLC) | TGI (A549 NSCLC) | GI50 (HCC-2998 colon) | TGI (HCC-2998 colon) | GI50 (HOP-92 NSCLC) | TGI (HOP-92 NSCLC) |
| --- | --- | --- | --- | --- | --- | --- | --- | --- | --- | --- | --- | --- | --- | --- | --- | --- | --- | --- | --- | --- |
| COc1cc(CCc2cc(NC(=O)c3ccc(N4C[C@@H](C)N[C@@H](C)C4)cc3)n[nH]2)cc(OC)c1 | 3.79 µM and 3.49 µM | > 10 µM and 13.1 µM | 5.58 µM and 1.08 µM | > 10 µM and 17.2 µM | 9.23 µM and 7.04 µM | > 10 µM and 19.3 µM | 3.86 µM and 3.33 µM | > 10 µM and 13.3 µM | > 10 µM and 6.16 µM | > 10 µM and 20.4 µM | > 10 µM and 7.2 µM | > 10 µM and 20.3 µM | 7.62 µM and 6.09 µM | > 10 µM and 18.5 µM | > 10 µM and 3.9 µM | > 10 µM and 15.3 µM | > 10 µM and 6.77 µM | > 10 µM and 19.5 µM | 1.95 µM and 1.96 µM | > 10 µM and 12.8 µM |
| COc1cc(O)c(C(=O)/C=C/c2ccccc2)c(OC)c1 |  | 20.1 µM |  | 16.2 µM |  | 25.6 µM |  | 22.4 µM |  | 21.6 µM |  | 38.5 µM |  | 21 µM |  | 30 µM |  | 14.1 µM |  | 14.4 µM |
| CC1(C)CC(=O)C2=C(C1)NC(SSC1=C(C#N)C(c3ccccc3)C3=C(CC(C)(C)CC3=O)N1)=C(C#N)C2c1ccccc1 (stereo not given) | 26.3 µg/mL | 47 µg/mL | 27.6 µg/mL | 48.6 µg/mL | 22.9 µg/mL | 59 µg/mL | 26.8 µg/mL | 48.2 µg/mL | 28.4 µg/mL | 49.5 µg/mL | 72.3 µg/mL | > 150 µg/mL | 44.7 µg/mL | 126 µg/mL | 50.5 µg/mL | > 150 µg/mL | 27.8 µg/mL | 52.6 µg/mL | 29 µg/mL | 51 µg/mL |
| O=[N+]([O-])c1ccc(Sc2ncccn2)c([N+](=O)[O-])c1 | 3.43 µM | 11.8 µM | 1.27 µM | 4.19 µM | 12.5 µM | 25.2 µM | 3.39 µM | 12.9 µM | 4.59 µM | 16.1 µM | 15.1 µM | 30.1 µM | 3.71 µM | 12.7 µM | 3.95 µM | 14.2 µM | 13 µM | 26.5 µM | 1.15 µM | 3.94 µM |
| O=C1C=C[C@]2(C[C@@H](c3cccc(C(F)(F)F)c3)O[C@@H](c3cccc(C(F)(F)F)c3)O2)O1 | 1.08 µM | 2.64 µM | 1.92 µM | 4.82 µM | 14.4 µM | 28.1 µM | 2.12 µM | 5.52 µM | 1.35 µM | 2.95 µM | 5.08 µM | 18.2 µM | 5.72 µM | 18.4 µM | 5.57 µM | 20.4 µM | 1.63 µM | 3.18 µM | 1.97 µM | 6.6 µM |
| Cc1ccc(S(=O)(=O)NC(CCC(=O)Nc2ccc(Cl)cc2)C(=O)Nc2ccc(Cl)cc2)cc1 (stereo not given) | 0.139 µM | 7.05 µM | 0.967 µM | 6.71 µM | 0.869 µM | 4.36 µM | 1.35 µM | 9.85 µM | 0.726 µM | 5.69 µM | 0.62 µM | 2.07 µM | 1.2 µM | 9.89 µM | 0.178 µM | 6.72 µM | 1.48 µM | 7.14 µM | 0.805 µM | 2.76 µM |
| O=C1CC(=O)N(C2CCCCC2)C(=O)N1c1ccccc1S(=O)(=O)Oc1ccccc1 |  | > 100 µM |  | > 100 µM |  | > 100 µM |  | > 100 µM |  | 33.3 µM |  | > 100 µM |  | > 100 µM |  | > 100 µM |  | > 100 µM |  | > 100 µM |
| Cc1cc(NC(=O)C2c3ccccc3C(=O)N(CC(C)C)C2c2cccs2)no1 (stereo not given) | 49.1 µM | > 100 µM | > 100 µM | > 100 µM | > 100 µM | > 100 µM | 69.5 µM | > 100 µM | > 100 µM | > 100 µM | > 100 µM | > 100 µM | > 100 µM | > 100 µM | > 100 µM | > 100 µM | > 100 µM | > 100 µM | 18.7 µM | 78.2 µM |
| O=C(c1cccs1)c1c(C(F)(F)F)n([O-])c2ccc(C(F)(F)F)cc2[n+]1=O | 0.17 µM | 0.314 µM | 0.178 µM | 0.34 µM | 1.24 µM | 2.56 µM | 0.19 µM | 0.364 µM | 0.188 µM | 0.339 µM | 0.298 µM | 0.767 µM | 0.234 µM | 0.576 µM | 0.134 µM | 0.31 µM | 0.647 µM | 1.28 µM | 0.152 µM | 0.321 µM |
| OB([O][Hg][c]1ccccc1)[O][Hg][c]1ccccc1 | 0.161 µM | 0.307 µM | 0.226 µM | 0.779 µM | 1.6 µM | 2.97 µM | 0.384 µM | 1.75 µM | 0.281 µM | 0.856 µM | 1.04 µM | 3.39 µM | 0.873 µM | 2.29 µM | 1.83 µM | 4.64 µM | 1.86 µM | 3.36 µM | 0.185 µM | 0.528 µM |
| COc1ccc(-c2cc(-c3ccc(Nc4nc(Nc5ccc(Cl)cc5)nc(Nc5ccc(Cl)cc5)n4)cc3)nc(N)c2C#N)cc1 | 1.65 µM | 3.65 µM | 3.06 µM | 9.11 µM | 8.71 µM | > 28.1 µM | 2.25 µM | 13 µM | 2.24 µM | 5.68 µM | 11.9 µM | > 42.3 µM | 3.91 µM | 17 µM | 3.64 µM | > 100 µM | 1.85 µM | 4.55 µM | 1.31 µM | 3.14 µM |
| Cn1cc(-c2ccc(=O)n(Cc3cccc(-c4ncc(OCCN5CCOCC5)cn4)c3)n2)cn1 | 56.5 µM | > 100 µM | 32.1 µM | > 100 µM | > 100 µM | > 100 µM | > 100 µM | > 100 µM | > 100 µM | > 100 µM | > 62.7 µM | > 100 µM | > 100 µM | > 100 µM | 71.7 µM | > 100 µM | > 100 µM | > 100 µM | 34.9 µM | > 100 µM |
| Nc1nc(N)[n+]([O-])c(N)c1NCO |  | > 100 µM |  | > 100 µM |  | > 100 µM |  | > 100 µM |  | > 100 µM |  | > 100 µM |  | > 100 µM |  | > 100 µM |  | > 100 µM |  | > 100 µM |
| CCCCCCCCCCCCCCCCCCNC(=O)[C@H]1CSC(c2ccc(OC)c(F)c2)N1 (stereo not given in full) | 1.68 µM | 3.5 µM | 1.71 µM | 4.04 µM | > 42 µM | > 58 µM | 5.05 µM | > 41.4 µM | 7.18 µM | > 46.2 µM | 2.16 µM | 5.12 µM | 24.2 µM | > 54.6 µM | 9.87 µM | 38.1 µM | 1.98 µM | 7.02 µM | 7.48 µM | 28.9 µM |
| Nc1ccn(C=C=CCO)c(=O)n1 | > 1000 µM | > 1000 µM | > 1000 µM | > 1000 µM | > 1000 µM | > 1000 µM | > 1000 µM | > 1000 µM | > 1000 µM | > 1000 µM | > 1000 µM | > 1000 µM | > 1000 µM | > 1000 µM | > 1000 µM | > 1000 µM | > 1000 µM | > 1000 µM | > 1000 µM | > 1000 µM |
| CC(=O)c1ccc(Nc2cc(-n3ccnc3)nc3ccccc23)cc1 | 30.5 µM | > 100 µM | > 100 µM | > 100 µM | > 100 µM | > 100 µM | 60.7 µM | > 100 µM | 7.86 µM | 41.3 µM | 4.26 µM | 29.4 µM | > 100 µM | > 100 µM | 35.3 µM | > 100 µM | > 100 µM | > 100 µM | 4.15 µM | 29.4 µM |
| O=C1/C(=C\c2ccc(Cl)cc2)CN(C(=S)Nc2ccccc2)C/C1=C\c1ccc(Cl)cc1 | 0.213 µM | 0.438 µM | 0.6 µM | 1.77 µM | 2.03 µM | 4.86 µM | 0.277 µM | 0.719 µM | 0.351 µM | 1.23 µM | 0.269 µM | 0.696 µM | 1.11 µM | 3.48 µM | 0.415 µM | 10.3 µM | 0.755 µM | 1.94 µM | 1.85 µM | 4.83 µM |
| O/N=C1\CCc2cc(-c3nc(C4CCNCC4)[nH]c3-c3ccncc3)ccc21 | > 25 µM | > 25 µM | > 25 µM | > 25 µM | > 25 µM | > 25 µM | > 16.4 µM | > 25 µM | > 25 µM | > 25 µM | > 25 µM | > 25 µM | > 25 µM | > 25 µM | > 25 µM | > 25 µM | > 25 µM | > 25 µM | > 25 µM | > 25 µM |
| N#C/C(=C\c1c(-c2ccccc2)[nH]c2ccccc12)C(=O)c1ccc(Cl)cc1 | 0.68 µM | 23.9 µM | 5.83 µM | 79.7 µM | 3.02 µM | 14.8 µM | 0.476 µM | 21.4 µM | 5.53 µM | 23.5 µM | 5.41 µM | 26 µM | 3.54 µM | 16.7 µM | 8.44 µM | > 68.8 µM | 2.11 µM | 19.5 µM | 3.35 µM | 22.1 µM |
